# Measured values: a melting point compilation (Tetko et al.)
row,SMILES,melting point [°C]
1,CCCCCCCCOC(=O)c1ccccc1C(=O)OCCCCCCCC(C)C,98
2,CC(O)COC(C)(C)C (configuration not stated),-56
3,CC1CCCC(O)C1 (configuration not stated),-5.5
4,BrC1Cc2ccccc2C1Br (configuration not stated),32
5,CCCCN1C(=O)c2ccccc2C1=O,34
6,OC(CCl)C(O)CCl (configuration not stated),126
7,O=C(O)CCc1cccc(O)c1,112
8,FC(F)(F)C(F)(F)C(F)(F)C(F)(F)C(F)(F)C(F)(F)C(F)(F)C(F)(F)C(F)(F)C(F)(F)C(F)(F)C(F)(F)F,75 to 77
9,O=C(O)CNC(CO)(CO)CO,187
10,O=C(CO)[C@@H](O)[C@H](O)[C@@H](O)CO,165
11,COc1ccc(CC(=O)O)cc1OCc1ccccc1,126
12,CCC(C)(C)C(=O)O,-14
13,CC1(C)C2CC3C(C2)C31C,67.5
14,O=C1CSC(=S)N1c1ccccc1,194
15,O=C(/C(=N/O)c1ccccc1)c1ccc2c3c(cccc13)CC2,204
16,O=C(O)C1(c2ccccc2)CC1,87
17,N#CCc1ccc(-c2ccccc2)cc1,95
18,CCCCCCCCOc1ccccc1,8
19,CC(=O)C1CCC2(C)C(CC(=O)C3C4CCC(=O)C4(C)CCC32)C1 (configuration not stated),237
20,COc1ccc2c(c1)CC(c1ccc([N+](=O)[O-])cc1)OC2=O (configuration not stated),176
21,CCC(C(=O)NC(=O)NC(C)=O)c1ccccc1 (configuration not stated),100
22,COc1c(C)c2c(c(O)c1CC=C(C)CCC(=O)O)C(=O)OC2,141
23,CN(C)c1ccc(CNC(=O)c2cc([N+](=O)[O-])cc([N+](=O)[O-])c2)cc1,145
24,O=C(O)c1ccccc1Nc1cccc(F)c1,158 to 163
25,Clc1ccccc1C=C1c2ccccc2-c2ccccc21,69.5

row,SMILES,melting point [°C]
1,Nc1c([N+](=O)[O-])cccc1[N+](=O)[O-],142
2,CC(=O)NC1C(O)OC(CO)C(O)C1OC(C)C(=O)O (configuration not stated),125
3,Cc1ccccc1NN=C1C(=O)NC(=S)NC1=O,242
4,N=C1NCCS1,85.3
5,CNC(=O)Oc1cc(C)c(N(C)C)c(C)c1,85
6,Ic1ccc(N2CCOCC2)cc1,131 to 132
7,NC1(C(=O)O)CCCC1,320 to 322
8,CO[C@@H](C)C(N)=O,80 to 84
9,O=C(O)C=CC(=O)O,295 to 300
10,Cc1nc2ccc3ccccc3c2o1,37
11,Nc1ncnc2c1ccn2C1OC(CO)C(O)C1O (configuration not stated),247
12,OCCN1CCN(c2ncc(Cl)cc2C(F)(F)F)CC1,58 to 59
13,Cc1c(C)c(C)c2c(c1C)CC1(OC2=O)C(=O)c2ccccc2C1=O,257
14,Clc1ncnc2sc3c(c12)CCCC3,96
15,CC(OC/C(=N\NC(N)=O)c1ccccc1)=C(C#N)c1ccccc1,156 to 158
16,COC(=O)c1ccc(CC(C#N)(Cc2ccc(C(=O)OC)cc2)c2ccc(CC(C)C)cc2)cc1,115
17,Fc1c(F)c(-c2c(F)c(F)c(Br)c(F)c2F)c(F)c(F)c1Br,113 to 115
18,CNC(=O)Oc1ccc(C)c(C)c1,79.5
19,O=P(c1ccccc1)(c1ccccc1)C1C=COC2=C1CCCC2 (configuration not stated),176 to 177
20,FC(F)(F)c1cccc(Cl)c1,-56
21,FC(F)(F)C1(F)C(F)(F)C(F)(F)C(F)(F)C(F)(F)C1(F)F,-37
22,c1ccc(-c2oc(-c3ccccc3)c(-c3ccccc3)c2-c2ccccc2)cc1,175
23,O=C1C=CC(=O)N1c1ccc(-c2nc3ccccc3o2)cc1,211 to 213
24,CCC(=O)NC,-30.9
25,O=S(=O)(O)CCCNC1CCCCC1,324

row,SMILES,melting point [°C]
1,CCCCOc1ccc(-c2nn(CCC#N)c(=S)[nH]2)cc1,115
2,O=S1(=O)c2ccccc2-c2ccccc21,231 to 236
3,O=C(Nc1ccccc1)c1nn(-c2ccccc2)c(-c2ccc([N+](=O)[O-])cc2)c1S(=O)(=O)c1ccccc1,240
4,O=S(=O)(Cl)c1ccc(-c2ccc(Cl)cc2)cc1,109 to 110
5,CC(C)(C)NC(=O)C1CCC2C3CCC4NC(=O)C=CC4(C)C3CCC12C (configuration not stated),253
6,ClCC(Cl)(Cl)C(Cl)(Cl)Cl,26
7,O=C1OC(OC2OC(=O)c3ccccc32)c2ccccc21 (configuration not stated),222
8,Fc1ccc(F)cc1,-13
9,Sc1nnc2ccccn12,213 to 214
10,C=C/C=C(C)/C=N/Nc1ccc([N+](=O)[O-])cc1[N+](=O)[O-],171
11,BrC(CCC(Br)C(Br)c1ccccc1)C(Br)c1ccccc1 (configuration not stated),194
12,FC(F)(Br)C(F)(F)C(F)(F)C(F)(F)C(F)(F)C(F)(F)C(F)(F)C(F)(F)Br,40
13,C#CC1(O)CCC2(C)C3CCC4(C)C(=O)CCC4C3CCC2(C)C1 (configuration not stated),238
14,O=[N+]([O-])c1cccc(C=NNc2ccccc2)c1,123
15,CS(=O)(=O)Oc1ccccc1,62 to 63
16,COc1ccc(-c2cc(=O)c3c(O)cc(O)cc3o2)cc1O,254
17,FC(F)(F)c1ccc(N2CCCNCC2)nc1,50 to 53
18,COc1cc2c(cc1O)C(Cc1ccc(O)cc1)NCC2 (configuration not stated),220
19,CNC(=C[N+](=O)[O-])NCCSCc1ccc(CN(C)C)o1,69
20,C[Si](C)(C)N([Si](C)(C)C)[Si](C)(C)C,67 to 69
21,CCOC(=O)c1nn(-c2ccc(C)cc2)c(C)c1C(=O)C1=NOC2C(=O)N(c3ccc(C(=O)O)cc3)C(=O)C12 (configuration not stated),281
22,CCC1CN2CCc3cc(OC)c(OC)cc3C2CC1CC1NCCc2cc(O)c(OC)cc21 (configuration not stated),116
23,CNCCc1c[nH]c2ccccc12,88
24,O=P(OC(Cl)CCCl)(OC(Cl)CCCl)OC(Cl)CCCl (configuration not stated),26.7

# Further lines, results first:
row,melting point [°C],SMILES
1,159 to 160,c1ccc2cc3c(cc2c1)CC1OC1C3 (configuration not stated)
2,116,CC1(C)OC(=O)C(=Cc2ccc(Br)o2)C(=O)O1
3,158,Cn1c(=O)c2c(ncn2CCO)n(C)c1=O
4,136,COC(=O)c1ccc(O)c(O)c1
5,-69,Cc1ccsc1
6,213 to 214,COc1ccc(-n2c(SC)nc3nc(SC)n(C)c3c2=O)cc1
7,254,N=c1oc2ccccc2cc1C(N)=S
8,144,CCCCNC(=O)NS(=O)(=O)c1ccc(N)cc1
9,134,CCOC(=O)c1cc(C(=O)OCC)cc(C(=O)OCC)c1
10,72 to 74,CCOC(=O)c1cc(C(C)(C)C)nn1Cc1c(C)cc(C)cc1C
11,93,Cc1cc2c(o1)-c1c(oc3ccc(Cl)cc13)CCC2C (configuration not stated)
12,139 to 140,NC(=NO)c1cccc(Cl)c1Cl
13,174 to 175,CC(=O)OCC1OC(n2cnc3c(N)ncnc32)C(OC(C)=O)C1OC(C)=O (configuration not stated)
14,103,c1ccc(-c2nc3ccccc3o2)cc1
15,279,CC(=O)n1c(C)cc2cc3cc(C)[nH]c3cc21
16,162,Cn1nnc2cc(C=O)ccc21
17,37,Cc1ccn(-c2ccccc2)n1
18,61,COC(=O)c1ccc(I)c(C)c1
19,169,CCCOC(=O)C1=C(C)NC(=S)NC1c1ccccc1 (configuration not stated)
20,58 to 62,CC1=CP(=O)(c2ccccc2)CC1 (configuration not stated)
21,58,COc1ccc(C(F)(F)F)cc1N
22,122,Cc1cccc(C)c1NC(=O)c1cncc(Cl)n1
23,90.5 to 92.5,CN(CCO)c1cc(C(F)(F)F)nc2ccccc12
24,87 to 91,CC(C)(C)C(=O)Nc1ncccc1C=O
25,71 to 73,CCOC(=O)c1csc(C2CCN(C(=O)OC(C)(C)C)CC2)n1
26,53 to 55,CSC(SC)=C(C#N)C(=O)c1cccc(C)c1
27,156 to 158,CC(C)(C)c1ccc(-c2nnc(S)n2Cc2ccco2)cc1

row,melting point [°C],SMILES
1,103,CC(=O)C(=CNc1ccc(C)cc1)Cc1ccccc1
2,219 to 223,O=C(O)C=Cc1ccc(Br)cc1F
3,54 to 56,Nc1ccccc1-c1cnco1
4,89 to 90,O=C(CBr)c1cc2ccccc2o1
5,77 to 78,Cc1ccc(S(=O)(=O)CCCl)cc1
6,177 to 179,FC(F)(F)c1cc(-c2ccc3c(c2)OCO3)n[nH]1
7,142 to 147,Cc1ccccc1-n1ncc(C(=O)O)c1C
8,137,Nc1ccc(Cl)cn1
9,192,Cc1cc(N)cc(C)n1
10,135,Cc1c(C)c(C)c(CCl)c(CCl)c1C
11,80 to 80.5,O=C(Cl)c1cccc(-c2nccs2)c1
12,207 to 209,CCOC(=O)C1=C(C)NC(=S)NC1c1ccccc1 (configuration not stated)
13,250,Nc1ccc(N=Nc2ccc(S(N)(=O)=O)cc2)c(N)c1
14,51,Cc1cc(C(C)(C)C)cc(C(C)(C)C)c1O
15,81.3,Nc1nccc(-c2ccncc2)n1
16,88,CCOC(=O)C(C#N)=Cc1ccccc1Cl
17,71 to 73,N#Cc1ccc(F)cc1[N+](=O)[O-]
18,152,Cc1ccc(C(O)(c2ccc(C)cc2)C2(C)CCC(C(=O)O)C(C)(C)O2)cc1 (configuration not stated)
19,139 to 142,COC(=O)C(C)(N)Cc1c[nH]c2ccccc12 (configuration not stated)
20,78,Cc1ccc(-c2cnco2)cc1
21,45 to 47,Nc1cccc(COc2ccccc2)c1
22,40,Nc1c(F)cc(F)cc1Br
23,265 to 268,Oc1ccnc2ccc(C(F)(F)F)cc12
24,146,NS(=O)(=O)c1cccc(Cl)c1
25,131,CC(=O)Oc1ccc2ccc(OC(C)=O)cc2c1
26,131,CC(=O)c1cc(Br)cc([N+](=O)[O-])c1O
